# Results as given in ChEMBL document CHEMBL3301555, “MMV Malaria Box screening in pLDH viability assay against Plasmodium falciparum gametocytes”.
# Test system: Plasmodium falciparum
# Assay: MMV: Measure of pLDH activity as indication of parasite viability. Gametocytogenesis of 3D7 Plasmodium falciparum strain was induced in vitro and asexual parasites were depleted with N-acetylglucosamine. Gametocytes were treated with dihydroartemisinin, epoxomicin, methylene blue, primaquine, puromycin or chloroquine in 96-well plates and the pLDH activity was evaluated using a modified Makler protocol. Mosquito infectivity was measured by the standard membrane feeding assay.
# Type: functional
# Design: concentration or dose not given beside the values
row,Structure (SMILES),Growth Inhibition [%]
1,c1ccc(/C2=N/c3ccccc3/N=C(/c3ccccc3)c3ccccc32)cc1,14.1312
2,CN(N=O)C1=C(NC2CCCCC2)C(=O)c2ccccc2C1=O,32.2
3,COc1cccc(NC(=O)Cn2c(C)c(C#N)c3ccccc32)c1,15.89
4,Cc1ccnc(NC(c2cccc(OCc3ccccc3)c2)c2ccc3cccnc3c2O)c1 (configuration not stated),-1.2034
5,COc1ccc2nc(N)nc(C)c2c1,7.6614
6,O=C(Nc1ccccc1O)c1ccc(Oc2cccc(C(=O)Nc3ccccc3O)c2)cc1,23.386
7,Cc1cc(NC(=O)c2cccc(C(F)(F)F)c2)n(-c2nc(-c3ccc4c(c3)OCO4)cs2)n1,1.3202
8,c1ccc2c(NCCc3c[nH]c4ccccc34)c3ccccc3nc2c1,22.8248
9,Cc1ccccc1OCCSc1nc2ccc(NC(=O)c3cccs3)cc2s1,6.631
10,COc1ccc(CNC2CCN(c3ccc(NC(=O)c4cccc(Cl)c4)cc3)CC2)cc1OC,12.3618
11,Nc1ccc(-c2nc3cc(Oc4ccc(Oc5ccc6[nH]c(-c7ccc(N)cc7)nc6c5)cc4)ccc3[nH]2)cc1,21.5644
12,CN1c2ccccc2N(C)C1c1ccc2c(c1)OCO2,17.3464
13,Br.CCN(CC)S(=O)(=O)c1ccc(-c2csc(Nc3ccc(C)c(C)c3)n2)cc1,9.3564
14,CCCc1c(CC)c(=N)c2ccccc2n1C,4.7322
15,CCOc1c(Cl)cc(CNCC(O)c2ccccc2)cc1OC (configuration not stated),20.5848
16,Cc1ccc(F)cc1NC(=O)c1cc(Cl)ccc1Nc1ccccc1,10.2234
17,CCCCCn1c(=N)n(CC(O)COc2cccc(C)c2)c2ccccc21.Cl (configuration not stated),34.3056
18,CCOC(=O)c1cnc2c(C)cccc2c1Nc1ccc(C(C)=O)cc1,14.9964
19,O=C(NCC(c1ccsc1)N1CCCCCC1)c1ccc(C(F)(F)F)cc1 (configuration not stated),-3.1098
20,COc1ccc(Nc2nc(N/N=C/c3ccc(O)cc3)nc(Nc3ccc([N+](=O)[O-])cc3)n2)cc1,24.1364
21,COc1ccc(C(=O)NC(c2ccccc2Cl)c2cc(Cl)c3cccnc3c2O)cc1 (configuration not stated),27.7302
22,CCOC(=O)c1cnc2ccc(OC)cc2c1Nc1ccc(N2CCN(C)CC2)cc1,5.5888
23,CCOC(=O)C1=C(C)N=c2sc(=Cc3cc(Cl)ccc3O)c(=O)n2C1c1ccc(OC)cc1 (configuration not stated),18.9955
24,COc1ccc(C=C2SC(Nc3ccc(F)cc3)=NC2=O)c(OC)c1,32.1464

row,Structure (SMILES),Growth Inhibition [%]
1,Cc1ccc(Nc2nc(NCCO)c3ccccc3n2)cc1C,11.5812
2,CCCc1cc(O)c2c3c(c(=O)oc2c1)CN(C)CC3,31.2868
3,O=C(Nc1ccc(CN2CCOCC2)cc1)c1ccc(-c2ccc(Br)cc2)o1,17.4274
4,CC(C)(C)c1ccc(C(=O)Nc2nc3ccccc3s2)cc1,9.3876
5,CC(C)(C)c1ccc(C2CC3=Nc4ccccc4N(C(=O)c4ccccc4Cl)C(c4ccc(F)cc4)C3=C(O)C2)cc1 (configuration not stated),12.8628
6,Cc1cc(NC(=O)C2c3ccccc3C(=O)N(CC(C)C)C2c2cccs2)no1 (configuration not stated),21.7574
7,COc1nc(Nc2ccc(C(C)C)cc2)nc(OC)n1,1.041
8,CSC1=NC(=Nc2c(C)cccc2C)C2(CCC(C(C)(C)C)CC2)N1c1ccc(Cl)cc1 (configuration not stated),-2.9236
9,Br.CCn1c2c(c(=N)c3c1CCC3)CCCC2,-4.7115
10,Nc1nc(Nc2cccc(F)c2)nc2ccccc12,18.202
11,OC(CNC1CCCCC1)Cn1c2ccccc2c2ccccc21 (configuration not stated),33.5526
12,CCC(c1ccccc1)c1nn2c(-c3cccs3)nnc2s1 (configuration not stated),4.041
13,Cc1ccc(-c2cc3nc4c(c(O)n3n2)CCCC4)cc1,9.811
14,OC(Cn1nnc2ccccc21)Cn1c2ccc(Br)cc2c2cc(Br)ccc21 (configuration not stated),11.39
15,Cc1ccc(-c2cc(C(=O)Nc3ccc(S(=O)(=O)N4CCCCC4)cc3)[nH]n2)c(O)c1,28.7504
16,COc1ccc(C(=O)Nc2ccc(Cl)cc2C(=O)Nc2ccncc2)cc1,8.2224
17,COc1ccc(NC(=O)C2c3ccccc3C(=O)N(CC(C)C)C2c2cccs2)cc1 (configuration not stated),28.379
18,Cc1ccc(S(=O)(=O)c2c(COC(=O)c3cccc(C)c3)c(-c3ccccc3)nn2C)cc1,4.058
19,Oc1ccccc1CN1CCC2(CCCN(Cc3ccccc3F)C2)C1 (configuration not stated),46.3042
20,CCOC(=O)c1cnc2ccc(Cl)cc2c1NCCCN(C)C,5.776
21,CCOc1c(Br)cc(C2C(C(=O)OC)=CN(C)C=C2C(=O)OC)cc1OC,11.9416
22,CCCc1c(C)nc2ccccc2c1O,34.5652
23,O=C(NC1CCCC1)c1ccc(N2CCC(NCc3cccc(C(F)(F)F)c3)CC2)cc1,6.6358
24,Oc1ccc(Br)cc1CN1CCN(Cc2ccc(Cl)cc2)CC1,44.4912

row,Structure (SMILES),Growth Inhibition [%]
1,O=C(Nc1ccc(F)c(Cl)c1)Nc1ccc(Cl)c(Cl)c1,4.6714
2,COc1ccc(CCNC(=O)c2cc(S(=O)(=O)N3CC(C)CC(C)C3)ccc2Sc2ccc(F)cc2)cc1OC (configuration not stated),10.1532
3,COc1ccc(-c2cn3c(C(=O)Nc4ccccc4Cl)c(-c4ccccc4)c4c3n2CCCC4)cc1,1.628
4,COc1ccc(-c2cc3c(SCC(=O)Nc4cc(C(F)(F)F)ccc4Cl)nccn3n2)cc1,0.117
5,Cc1cc(=O)oc2c1ccc1oc(C(=O)c3ccccc3)c(C)c12,19.4
6,O=C(Nc1ccc(Cl)c(Cl)c1)Nc1ccc(Cl)c(Cl)c1,10.3704
7,COc1ccc(CN2CCCC(C(=O)c3ccc(C(F)(F)F)cc3)C2)c(O)c1 (configuration not stated),43.708
8,O=C(Nc1ccc(Cl)cc1)N1CCN(c2ccc3nncn3n2)CC1,-0.5422
9,CCOC(=O)c1cnc2ccc(CC)cc2c1O,41.8585
10,COc1cc2cc(C(=O)Nc3ccccc3)c(N)nc2cc1OC,2.432
11,COc1cccc(Cn2c(Oc3ccccc3)nc3c2c(=O)n(C)c(=O)n3C)c1,5.4442
12,N=c1n(CCN2CCCCC2)c2ccccc2n1CC(=O)c1ccc(Cl)c(Cl)c1,13.8938
13,Cc1cccc(N2C(=O)C3C(C2=O)C2(c4ccccc4)C(=O)C3(c3ccccc3)C(c3ccc4c(c3)OCO4)=C2c2ccc3c(c2)OCO3)c1 (configuration not stated),6.488
14,CCOc1ccc2c(c1)CN(Cc1ccc(Cl)cc1)CO2,25.403
15,CCC(=O)Nc1nnc(Cc2ccc(OC)c(OC)c2)s1,9.8854
16,N=c1c2ccccc2nnn1-c1cccc(C(F)(F)F)c1,20.848
17,O=C(Nc1ccc(-c2nc3ccccc3[nH]2)cc1)c1ccc(Cl)c(Cl)c1,11.2736
18,CCn1c(CN2CCN(Cc3ccccc3)CC2)nc2cc(NC(=O)c3cccs3)ccc21,17.812
19,FC(F)(F)c1cccc(CNC2CCN(CCc3ccccc3)CC2)c1,12.4718
20,COc1ccc(C)c2sc(N(Cc3cccnc3)C(=O)c3ccc(C#N)cc3)nc12,-12.2204
21,CCc1ccc(Nc2cc(C)c3ccc(O)cc3n2)cc1.Cl,27.662
22,O=C(NC1CCN(Cc2ccccc2)CC1)c1cc(-c2ccncc2)nc2ccc(Cl)cc12,12.9682
23,C=CCc1c(C)nc2ccccc2c1O,8.3394
24,Oc1c2c(nc3cc(-c4ccccc4)nn13)CCCC2,5.0802
